Patent US9340590B2 (priority 2011, dated 2016)
Like-named read-outs stand apart in the source and are kept apart here. Positions of bridges follow the written chain, without caps; N, C: chain ends. Residues, ends and D or L forms follow the SMILES beside them.

Tests used:
Experiment in all cases: cell-based
hNav1.7 = hNav1.7 (Homo sapiens, UniProt Q15858); assay type: cell-based; conditions: IonWorks Quattro, read-out: IWQ Use Nav1.7
hNav1.5 = hNav1.5 (Homo sapiens, UniProt Q14524)
hNav1.3 = hNav1.3 (Homo sapiens, UniProt Q9NY46); conditions: IonWorks Quattro, read-out: IWQ Use Nav1.3
Chain of hNav1.3 (Q9NY46 whole entry, looked up): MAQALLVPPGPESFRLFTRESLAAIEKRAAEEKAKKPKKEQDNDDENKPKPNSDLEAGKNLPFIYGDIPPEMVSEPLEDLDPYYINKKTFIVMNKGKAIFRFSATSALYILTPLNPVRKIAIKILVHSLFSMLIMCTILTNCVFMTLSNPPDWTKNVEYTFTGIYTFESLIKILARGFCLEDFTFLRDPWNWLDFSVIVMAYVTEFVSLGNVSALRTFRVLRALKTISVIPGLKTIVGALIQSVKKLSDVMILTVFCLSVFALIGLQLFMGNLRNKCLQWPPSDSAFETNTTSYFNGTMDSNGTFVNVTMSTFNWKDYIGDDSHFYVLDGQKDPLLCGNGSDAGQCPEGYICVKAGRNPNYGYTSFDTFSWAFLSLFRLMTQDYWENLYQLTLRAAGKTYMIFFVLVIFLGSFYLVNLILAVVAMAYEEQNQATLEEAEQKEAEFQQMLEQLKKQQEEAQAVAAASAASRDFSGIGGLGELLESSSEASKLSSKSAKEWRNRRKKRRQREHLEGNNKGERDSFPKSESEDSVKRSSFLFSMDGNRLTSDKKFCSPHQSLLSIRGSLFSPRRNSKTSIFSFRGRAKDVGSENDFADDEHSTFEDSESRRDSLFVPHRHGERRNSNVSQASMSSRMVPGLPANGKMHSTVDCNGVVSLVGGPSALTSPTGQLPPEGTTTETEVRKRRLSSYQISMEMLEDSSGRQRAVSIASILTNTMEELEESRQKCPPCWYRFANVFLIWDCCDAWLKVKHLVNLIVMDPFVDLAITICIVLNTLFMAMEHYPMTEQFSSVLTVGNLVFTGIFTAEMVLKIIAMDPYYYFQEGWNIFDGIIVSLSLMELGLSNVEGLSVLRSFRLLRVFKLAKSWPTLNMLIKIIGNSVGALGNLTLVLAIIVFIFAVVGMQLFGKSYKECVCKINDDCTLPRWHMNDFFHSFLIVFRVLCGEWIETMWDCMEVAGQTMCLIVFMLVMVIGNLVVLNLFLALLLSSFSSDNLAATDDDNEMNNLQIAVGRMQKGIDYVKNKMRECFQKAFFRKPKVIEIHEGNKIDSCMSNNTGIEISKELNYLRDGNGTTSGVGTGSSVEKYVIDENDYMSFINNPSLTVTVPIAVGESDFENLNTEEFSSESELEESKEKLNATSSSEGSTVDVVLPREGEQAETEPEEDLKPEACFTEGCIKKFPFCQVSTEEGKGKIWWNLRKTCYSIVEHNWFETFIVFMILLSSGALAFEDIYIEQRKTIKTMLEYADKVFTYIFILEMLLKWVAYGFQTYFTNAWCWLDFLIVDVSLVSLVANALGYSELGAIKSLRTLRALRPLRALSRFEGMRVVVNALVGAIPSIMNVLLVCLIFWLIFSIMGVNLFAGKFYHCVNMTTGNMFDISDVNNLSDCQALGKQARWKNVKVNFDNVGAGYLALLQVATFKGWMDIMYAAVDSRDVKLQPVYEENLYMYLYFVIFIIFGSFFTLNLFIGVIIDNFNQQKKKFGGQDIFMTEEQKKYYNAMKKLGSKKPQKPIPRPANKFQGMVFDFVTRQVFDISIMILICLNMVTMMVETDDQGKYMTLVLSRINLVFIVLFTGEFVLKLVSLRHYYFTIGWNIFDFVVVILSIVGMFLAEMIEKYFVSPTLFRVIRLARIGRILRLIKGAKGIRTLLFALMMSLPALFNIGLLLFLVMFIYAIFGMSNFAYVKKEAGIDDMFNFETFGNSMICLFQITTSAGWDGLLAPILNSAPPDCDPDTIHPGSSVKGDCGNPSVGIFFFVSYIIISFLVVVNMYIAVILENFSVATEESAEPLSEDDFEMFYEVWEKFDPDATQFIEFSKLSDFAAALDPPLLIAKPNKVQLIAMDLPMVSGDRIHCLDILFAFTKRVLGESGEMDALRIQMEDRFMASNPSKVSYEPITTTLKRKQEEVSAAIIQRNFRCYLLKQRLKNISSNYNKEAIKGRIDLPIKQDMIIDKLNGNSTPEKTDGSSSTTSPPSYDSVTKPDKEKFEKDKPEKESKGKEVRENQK

[1] = clamped to −110 mV, depolarized to −10 mV, 5 min after compound, n=2

Chain of hNav1.7 (Q15858 whole entry, looked up): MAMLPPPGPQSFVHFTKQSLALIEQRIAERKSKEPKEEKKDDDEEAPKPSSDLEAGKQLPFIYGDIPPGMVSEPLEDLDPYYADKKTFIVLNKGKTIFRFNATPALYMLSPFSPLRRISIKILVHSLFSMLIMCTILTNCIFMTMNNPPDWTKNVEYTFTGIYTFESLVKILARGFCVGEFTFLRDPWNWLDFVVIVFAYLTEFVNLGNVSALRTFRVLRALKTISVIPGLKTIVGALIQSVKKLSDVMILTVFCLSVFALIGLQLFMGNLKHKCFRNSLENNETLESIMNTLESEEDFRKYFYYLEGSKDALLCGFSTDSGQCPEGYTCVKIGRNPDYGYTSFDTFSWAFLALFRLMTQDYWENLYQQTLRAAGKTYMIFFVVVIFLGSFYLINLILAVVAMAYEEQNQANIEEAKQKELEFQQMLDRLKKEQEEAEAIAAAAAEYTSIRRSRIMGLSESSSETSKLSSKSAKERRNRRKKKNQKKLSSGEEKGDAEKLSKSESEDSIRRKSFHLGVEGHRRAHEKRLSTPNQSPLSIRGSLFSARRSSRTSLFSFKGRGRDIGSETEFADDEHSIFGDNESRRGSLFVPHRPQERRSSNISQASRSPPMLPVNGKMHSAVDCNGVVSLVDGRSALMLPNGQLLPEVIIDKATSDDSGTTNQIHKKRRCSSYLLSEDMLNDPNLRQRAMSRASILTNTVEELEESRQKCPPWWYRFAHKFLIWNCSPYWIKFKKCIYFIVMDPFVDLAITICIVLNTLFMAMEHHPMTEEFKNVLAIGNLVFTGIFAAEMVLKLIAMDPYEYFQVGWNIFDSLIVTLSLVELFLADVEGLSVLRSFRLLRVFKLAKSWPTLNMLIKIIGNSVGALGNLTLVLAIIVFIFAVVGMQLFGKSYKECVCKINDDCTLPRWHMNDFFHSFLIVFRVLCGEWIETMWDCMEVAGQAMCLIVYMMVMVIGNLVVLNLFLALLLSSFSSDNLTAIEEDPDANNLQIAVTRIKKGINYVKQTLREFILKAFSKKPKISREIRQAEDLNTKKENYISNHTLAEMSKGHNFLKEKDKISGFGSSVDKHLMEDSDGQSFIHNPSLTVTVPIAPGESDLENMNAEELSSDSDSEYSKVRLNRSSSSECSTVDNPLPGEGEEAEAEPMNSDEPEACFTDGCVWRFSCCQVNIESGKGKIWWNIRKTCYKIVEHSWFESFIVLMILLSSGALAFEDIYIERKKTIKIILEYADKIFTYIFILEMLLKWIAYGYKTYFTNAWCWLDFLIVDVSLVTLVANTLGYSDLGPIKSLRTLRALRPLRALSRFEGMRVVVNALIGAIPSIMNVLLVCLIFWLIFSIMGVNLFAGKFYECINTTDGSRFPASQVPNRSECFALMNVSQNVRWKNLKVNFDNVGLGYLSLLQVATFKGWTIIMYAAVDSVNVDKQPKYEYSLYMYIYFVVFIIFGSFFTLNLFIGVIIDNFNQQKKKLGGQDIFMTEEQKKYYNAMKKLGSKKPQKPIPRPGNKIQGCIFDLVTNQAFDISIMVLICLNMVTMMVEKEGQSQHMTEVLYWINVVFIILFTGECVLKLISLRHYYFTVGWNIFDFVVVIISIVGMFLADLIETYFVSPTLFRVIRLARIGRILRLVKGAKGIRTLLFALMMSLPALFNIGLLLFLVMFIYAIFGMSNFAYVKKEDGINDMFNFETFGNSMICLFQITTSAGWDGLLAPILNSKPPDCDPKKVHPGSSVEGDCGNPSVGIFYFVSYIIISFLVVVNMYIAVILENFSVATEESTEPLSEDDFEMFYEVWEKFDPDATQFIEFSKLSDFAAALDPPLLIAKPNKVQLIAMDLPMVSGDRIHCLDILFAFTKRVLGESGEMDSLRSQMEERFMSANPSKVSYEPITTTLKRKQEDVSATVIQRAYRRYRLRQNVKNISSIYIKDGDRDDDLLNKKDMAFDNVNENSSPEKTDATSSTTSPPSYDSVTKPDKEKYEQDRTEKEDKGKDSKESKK

Compound	IC50 (hNav1.7; Table 23, use, […]) [nM]	IC50 (hNav1.5; IWQ Use Nav1.5 (μM)) [µM]	IC50 (hNav1.3; Table 23, use, […]) [nM]	IC50 (hNav1.7; [1]) [nM]	IC50 (hNav1.5; IWQ Use Nav1.5) [µM]	IC50 (hNav1.3; [1]) [nM]	IC50 (hNav1.5; IonWorks Quattro, clamped to −110 mV, depolarized to −10 mV, 5 min after compound, n=2, read-out: IWQ Use Nav1.5) [µM]
CC[C@H](C)[C@@H]1NC(=O)[C@@H]2CSSC[C@@H]3NC(=O)[C@H](C(C)C)NC(=O)[C@H](CC(C)C)NC(=O)[C@H](CC(N)=O)NC(=O)[C@@H]4CCCN4C(=O)[C@H](CCCNC(=N)N)NC(=O)[C@H](CSSC[C@H](NC(=O)[C@@H](N)CC(=O)O)C(=O)N[C@@H](CC(C)C)C(=O)NCC(=O)N[C@@H](Cc4ccccc4)C(=O)N[C@@H](CCSC)C(=O)N[C@@H](CCCNC(=N)N)C(=O)N[C@@H](CCCCN)C(=O)N2)NC(=O)[C@H](CSSC[C@@H](C(=O)N[C@@H](CCCCN)C(=O)N[C@@H](Cc2ccc(O)cc2)C(=O)N[C@H](C(=O)N[C@@H](Cc2ccccc2)C(N)=O)C(C)C)NC(=O)[C@H](Cc2c[nH]c4ccccc24)NC(=O)[C@H](CCCNC(=N)N)NC(=O)[C@H](Cc2cnc[nH]2)NC(=O)[C@H]([C@@H](C)O)NC(=O)[C@H](CCCNC(=N)N)NC(=O)[C@H](CO)NC3=O)NC(=O)[C@H](CCCCN)NC(=O)[C@H](CC(=O)O)NC(=O)[C@H](CC(N)=O)NC(=O)[C@H](CC(=O)O)NC(=O)[C@@H]2CCCN2C1=O [SEQ ID NO: 72, [Arg28]GpTx-1]	80	8.95	130	–	–	–	–
CC[C@H](C)[C@@H]1NC(=O)[C@@H]2CSSC[C@@H]3NC(=O)[C@H](C(C)C)NC(=O)[C@H](CC(C)C)NC(=O)[C@H](CC(N)=O)NC(=O)[C@@H]4CCCN4C(=O)[C@H](CCCNC(=N)N)NC(=O)[C@H](CSSC[C@H](NC(=O)[C@@H](N)Cc4c[nH]c5ccccc45)C(=O)N[C@@H](CC(C)C)C(=O)NCC(=O)N[C@@H](Cc4ccccc4)C(=O)N[C@@H](CCSC)C(=O)N[C@@H](CCCNC(=N)N)C(=O)N[C@@H](CCCCN)C(=O)N2)NC(=O)[C@H](CSSC[C@@H](C(=O)N[C@@H](CCCCN)C(=O)N[C@@H](Cc2ccc(O)cc2)C(=O)N[C@H](C(=O)N[C@@H](Cc2ccccc2)C(N)=O)C(C)C)NC(=O)[C@H](Cc2c[nH]c4ccccc24)NC(=O)[C@H](CCCCN)NC(=O)[C@H](Cc2cnc[nH]2)NC(=O)[C@H]([C@@H](C)O)NC(=O)[C@H](CCCNC(=N)N)NC(=O)[C@H](CO)NC3=O)NC(=O)[C@H](CCCCN)NC(=O)[C@H](CC(=O)O)NC(=O)[C@H](CC(N)=O)NC(=O)[C@H](CC(=O)O)NC(=O)[C@@H]2CCCN2C1=O [SEQ ID NO: 81] (H-WCLGFMRKCIPDNDKCCRPNLVCSRTHKWCKYVF-NH2; disulfide 2-17, 9-23, 16-30)	–	–	–	50	8.79	100	–
CC[C@H](C)[C@@H]1NC(=O)[C@@H]2CSSC[C@@H]3NC(=O)[C@H](C(C)C)NC(=O)[C@H](CC(C)C)NC(=O)[C@H](CC(N)=O)NC(=O)[C@@H]4CCCN4C(=O)[C@H](CCCNC(=N)N)NC(=O)[C@H](CSSC[C@H](NC(=O)[C@@H](N)CC(=O)O)C(=O)N[C@@H](CC(C)C)C(=O)NCC(=O)N[C@@H](Cc4c[nH]c5ccccc45)C(=O)N[C@@H](CCSC)C(=O)N[C@@H](CCCNC(=N)N)C(=O)N[C@@H](CCCCN)C(=O)N2)NC(=O)[C@H](CSSC[C@@H](C(=O)N[C@@H](CCCCN)C(=O)N[C@@H](Cc2ccc(O)cc2)C(=O)N[C@H](C(=O)N[C@@H](Cc2ccccc2)C(N)=O)C(C)C)NC(=O)[C@H](Cc2c[nH]c4ccccc24)NC(=O)[C@H](CCCCN)NC(=O)[C@H](Cc2cnc[nH]2)NC(=O)[C@H]([C@@H](C)O)NC(=O)[C@H](CCCNC(=N)N)NC(=O)[C@H](CO)NC3=O)NC(=O)[C@H](CCCCN)NC(=O)[C@H](CC(=O)O)NC(=O)[C@H](CC(N)=O)NC(=O)[C@H](CC(=O)O)NC(=O)[C@@H]2CCCN2C1=O [SEQ ID NO: 82] (H-DCLGWMRKCIPDNDKCCRPNLVCSRTHKWCKYVF-NH2; disulfide 2-17, 9-23, 16-30)	–	–	–	150	–	110	9.32
